Results: patent US10398592B2, “Diagnostic methods and apparatus” (ForSight Vision4, Inc., priority 2011, dated 2019)

Tests used:
[1] = Diffusion model of release from the therapeutic device reservoir through the porous structure
Description: The release rate of therapeutic agent 110 through a porous body, such as a sintered porous metal structure or a porous glass structure, may be described by diffusion of the therapeutic agent 110 within the porous structure 150 with the channel parameter, and with an effective diffusion coefficient equal to the diffusion coefficient of the therapeutic agent 110 in the liquid that fills the reservoir multiplied by the Porosity and a Channel Parameter of the porous body: Release Rate=(DP/F)A(cR−cV)/L, where: cR=Concentration in reservoir cV=Concentration outside of the reservoir or in the vitreous D=Diffusion coefficient of the therapeutic agent in the reservoir solution P=Porosity of porous structure F=Channel parameter that may correspond to a tortuosity parameter of channels of porous structure A=Area of porous structure L=Thickness (length) of porous structure Cumulative Release=1−cR/cR0=1−exp((−DPA/FLVR)t), where t=time, Vr=reservoir volume
A model can be derived to describe the release rate as a function of time by relating the change of concentration in the reservoir 140 to the release rate described above. This model assumes a solution of therapeutic agent 110 where the concentration in the reservoir 140 is uniform. In addition, the concentration in the receiving fluid or vitreous is considered negligible (cV=0). Solving the differential equation and rearrangement yields the following equations describing the concentration in the reservoir as a function of time, t, and volume of the reservoir, VR, for release of a therapeutic agent 110 from a solution in a reservoir though a porous structure 150. cR=cR0 exp((−DPA/FLVR)t) and Cumulative Release=1−cR/cR0
The molecular weight of the stabilizer can be provided in 1k Dalton increments from about 1k Dalton to about 200k Daltons and provide in a Table having about 200 rows similar to Table 2. The parameters of Table 2 determined such as the half-life in the device, the equivalent volume, the equivalent diameter, and % in the device at the half-life of the therapeutic agent 110. The table may comprise a row for each molecular weight in 1k Dalton increments, and the % of stabilizer in the device compared with the therapeutic agent 110. The table may include columns for two half-lives of the therapeutic agent, three half-lives of the therapeutic agent, four half-lives of the therapeutic agent, and the corresponding percentage of stabilizer remaining in the device.
FIG. 104 and Table 3 show concentrations of therapeutic agent, stabilizer and the ratio of stabilizer to therapeutic agent in accordance with an exemplary embodiment, for example. The concentrations and rations can be determined by a person of ordinary skill in the art based on the teachings described herein. […] Additional concentrations of the therapeutic agent can be used, for example greater amounts of therapeutic agent.

[2] = tested on: analytes detected in pathological aqueous samples; experiment: Analytes in pathological aqueous samples pre-treatment and after intravitreal bevacizumab injection (Table 1); format: in vivo
Description: The markers can be used to determine a course of treatment for the patient, and may be combined in many ways with the therapeutic agent as described herein. In many embodiments, the marker comprises a molecule that is a component of the eye which can diffuse through the porous structure into the reservoir structure. In many embodiments, the marker comprises a large molecule that can diffuse through the porous structure of the implanted device into the reservoir chamber. The therapeutic agent may comprise a large molecule or a small molecule that can diffuse through the porous structure, or combinations of large and small molecules. Work in relation to embodiments indicate that marker molecules having a lower molecular weight may accumulate in the implanted device more rapidly than larger molecular weight marker molecules, and that marker molecules having a molecular weight of no more than about 500 kDa can be used in many embodiments. In many embodiments the molecular weight can be smaller than 500 kDa, for example 100 kDa or less, so that the accumulation rate is increased. The molecular weight values of Table 1 can be combined in many ways to provide ranges of molecular weights of the measured marker. Alternatively or in combination, a plurality of markers of different molecular weight can be used to diagnose and treat the patient. Examples of markers and amounts similar to Table 1 can be used and are shown in Molecular Vision (Mol. Vis. 2010; 16: 2175-2184, Published online 2010 Oct. 27) available on the world wide web (at the address http://www.ncbi.nlm.nih.gov/pmc/articles/PMC2994336/table/t1/)
A ratio of pre-treatment mean concentration to post-treatment mean concentration is shown for the markers of Table 1. This ratio can be used to determine markers suitable to indicate efficacy of treatment and markers suitable for use as housekeeping genes. The markers having a ratio […] about 1.2, for example, can be suitable for use as housekeeping markers. Markers having a ratio above about 1.2 may be suitable for use as efficacy markers. In many embodiments, the one or more markers from the therapeutic device correspond to a pre/post ratio above of about 1.5, for example. Alternatively or in combination, the pre/post ratio can be less than 0.8, for example, and the marker risk may correspond to under-expression of protective factors, for example. The marker profile to diagnose the patient from a sample of the implanted device may comprise a plurality of up-regulation of pathogenic factor markers corresponding to a ratio above about 1.2 and a plurality of under-expression of protective factor markers corresponding to a ratio below about 0.8, for example.

[3] = Diffusion coefficients and equivalent size estimated from molecular weight; format: physicochemical; settings: for Diff Coeff: Table 2, 37 C, estimated from molecular weight; for D/(Ran D): diffusion relative to Ranibizumab
Description: If the reservoir solution is aqueous or has a viscosity similar to water, the value for the diffusion coefficient of the therapeutic agent (TA) in water at the temperature of interest may be used. […] (Molokhia et al, Exp Eye Res 2008): DTA,37C=DBSA,20C(η20C/η37C)(MWBSA/MWTA)^1/3 where MW refers to the molecular weight of either BSA or the test compound and η is the viscosity of water.
The diffusion constant of the stabilizer can be determined, for example, based on an estimate of hydrodynamic radius corresponding to the cube root of the molecular weight as described herein.
The diffusion coefficients of Table 2 can be determined based on weight for molecular weights up to about 2.5 M Daltons, and based on size above about 2.5 M Daltons.

[4] = aqueous samples after intravitreal bevacizumab injection
[5] = aqueous samples, intravitreal bevacizumab injection
[6] = assumes unit density, per molecule

Bevacizumab
Device Half-life relative to Ranibiz. [1]: 1.46
Alpha-1 Antitrypsin Post-treatment mean [2, 4]: 0.0025 mg/mL
Alpha-Fetoprotein Post-treatment mean [2, 4]: 0.2790 ng/mL
Apolipoprotein A1 Post-treatment mean [2, 4]: 0.0004 mg/mL
Apolipoprotein CIII Post-treatment mean [2, 4]: 0.0259 µg/mL
Apolipoprotein H Post-treatment mean [2, 4]: 0.6400 µg/mL
Beta-2 Microglobulin Post-treatment mean [2, 4]: 0.3026 µg/mL
C Reactive Protein Post-treatment mean [2, 4]: 0.0477 µg/mL
CD40 Post-treatment mean [2, 4]: 0.0510 ng/mL
Cancer Antigen 19-9 Post-treatment mean [2, 4]: 0.2042 U/ml
Cancer Antigen 125 Post-treatment mean [2, 4]: 1.7225 U/ml
Complement 3 Post-treatment mean [2, 4]: 0.0014 mg/mL
Endothelin-1 Post-treatment mean [2, 4]: 5.2375 pg/mL
Eotaxin Post-treatment mean [2, 4]: 13.5813 pg/mL
Erythropoietin Post-treatment mean [2, 4]: 111.6125 pg/mL
FGF basic Post-treatment mean [2, 4]: 30.8900 pg/mL
Fibrinogen Post-treatment mean [2, 4]: 0.0005 mg/mL
G-CSF Post-treatment mean [2, 4]: 3.6748 pg/mL
Glutathione S-Transferase Post-treatment mean [2, 4]: 0.1544 ng/mL
Haptoglobin Post-treatment mean [2, 4]: 0.0004 mg/mL
ICAM-1 Post-treatment mean [2, 4]: 0.6971 ng/mL
IGF-1 Post-treatment mean [2, 4]: 1.4285 ng/mL
IL-6 Post-treatment mean [2, 4]: 15.2016 pg/mL
IL-7 Post-treatment mean [2, 4]: 12.3125 pg/mL
IL-8 Post-treatment mean [2, 4]: 14.9900 pg/mL
IgA Post-treatment mean [2, 4]: 0.0015 mg/mL
IgM Post-treatment mean [2, 4]: 0.0009 mg/mL
Leptin Post-treatment mean [2, 4]: 0.2131 ng/mL
MCP-1 Post-treatment mean [2, 4]: 438.3750 pg/mL
MIP-1alpha Post-treatment mean [2, 4]: 9.4175 pg/mL
MIP-1beta Post-treatment mean [2, 4]: 21.7988 pg/mL
MMP-3 Post-treatment mean [2, 4]: 0.6159 ng/mL
Prostate Specific Antigen, Free Post-treatment mean [2, 4]: 0.0092 ng/mL
Prostatic Acid Phosphatase Post-treatment mean [2, 4]: 0.0095 ng/mL
SGOT Post-treatment mean [2, 4]: 1.3488 µg/mL
SHBG Post-treatment mean [2, 4]: 0.2250 nmol/L
Serum Amyloid P Post-treatment mean [2, 4]: 0.0134 µg/mL
Stem Cell Factor Post-treatment mean [2, 4]: 19.4375 pg/mL
TIMP-1 Post-treatment mean [2, 4]: 22.3825 ng/mL
Thyroxine Binding Globulin Post-treatment mean [2, 4]: 0.3876 µg/mL
Tissue Factor Post-treatment mean [2, 4]: 0.3631 ng/mL
VEGF Post-treatment mean [2, 4]: 484.1250 pg/mL
Alpha-1 Antitrypsin Pre-treatment mean/Post-treatment mean [2, 5]: 0.9
Alpha-Fetoprotein Pre-treatment mean/Post-treatment mean [2, 5]: 0.9
Apolipoprotein A1 Pre-treatment mean/Post-treatment mean [2, 5]: 1.8
Apolipoprotein CIII Pre-treatment mean/Post-treatment mean [2, 5]: 1.6
Apolipoprotein H Pre-treatment mean/Post-treatment mean [2, 5]: 1.3
Beta-2 Microglobulin Pre-treatment mean/Post-treatment mean [2, 5]: 1.4
C Reactive Protein Pre-treatment mean/Post-treatment mean [2, 5]: 2.3
CD40 Pre-treatment mean/Post-treatment mean [2, 5]: 1.3
Cancer Antigen 19-9 Pre-treatment mean/Post-treatment mean [2, 5]: 1.4
Cancer Antigen 125 Pre-treatment mean/Post-treatment mean [2, 5]: 1.0
Complement 3 Pre-treatment mean/Post-treatment mean [2, 5]: 0.9
Endothelin-1 Pre-treatment mean/Post-treatment mean [2, 5]: 1.0
Eotaxin Pre-treatment mean/Post-treatment mean [2, 5]: 1.3
Erythropoietin Pre-treatment mean/Post-treatment mean [2, 5]: 1.1
FGF basic Pre-treatment mean/Post-treatment mean [2, 5]: 1.7
Fibrinogen Pre-treatment mean/Post-treatment mean [2, 5]: 2.2
G-CSF Pre-treatment mean/Post-treatment mean [2, 5]: 4.7
Glutathione S-Transferase Pre-treatment mean/Post-treatment mean [2, 5]: 0.9
Haptoglobin Pre-treatment mean/Post-treatment mean [2, 5]: 1.3
ICAM-1 Pre-treatment mean/Post-treatment mean [2, 5]: 1.1
IGF-1 Pre-treatment mean/Post-treatment mean [2, 5]: 1.0
IL-6 Pre-treatment mean/Post-treatment mean [2, 5]: 7.9
IL-7 Pre-treatment mean/Post-treatment mean [2, 5]: 0.9
IL-8 Pre-treatment mean/Post-treatment mean [2, 5]: 1.5
IgA Pre-treatment mean/Post-treatment mean [2, 5]: 0.9
IgM Pre-treatment mean/Post-treatment mean [2, 5]: 1.4
Leptin Pre-treatment mean/Post-treatment mean [2, 5]: 1.8
MCP-1 Pre-treatment mean/Post-treatment mean [2, 5]: 1.5
MIP-1alpha Pre-treatment mean/Post-treatment mean [2, 5]: 1.1
MIP-1beta Pre-treatment mean/Post-treatment mean [2, 5]: 1.1
MMP-3 Pre-treatment mean/Post-treatment mean [2, 5]: 1.0
Prostate Specific Antigen, Free Pre-treatment mean/Post-treatment mean [2, 5]: 1.8
Prostatic Acid Phosphatase Pre-treatment mean/Post-treatment mean [2, 5]: 2.7
SGOT Pre-treatment mean/Post-treatment mean [2, 5]: 1.3
SHBG Pre-treatment mean/Post-treatment mean [2, 5]: 2.3
Serum Amyloid P Pre-treatment mean/Post-treatment mean [2, 5]: 2.1
Stem Cell Factor Pre-treatment mean/Post-treatment mean [2, 5]: 1.0
TIMP-1 Pre-treatment mean/Post-treatment mean [2, 5]: 1.4
Thyroid Stimulating Hormone Pre-treatment mean/Post-treatment mean [2, 5]: 1.6
Thyroxine Binding Globulin Pre-treatment mean/Post-treatment mean [2, 5]: 1.6
Tissue Factor Pre-treatment mean/Post-treatment mean [2, 5]: 1.0
VEGF Pre-treatment mean/Post-treatment mean [2, 5]: 1.4

OC[C@H]1O[C@H](O[C@H]2O[C@H](CO)[C@@H](O)[C@H](O)[C@H]2O)[C@H](O)[C@@H](O)[C@@H]1O [Trehalose]
Diff Coeff [3]: 5.0E−06 cm^2/s
Diff Coeff ([3]; listed as trehalose): ~5.0E-6 cm^2/s
Equiv volume [3, 6]: 0.6 nm^3
equivalent diameter [3, 6]: ~1.1 nm
D/(Ran D) [3]: 5.03
Device Half-life relative to Ranibiz. [1]: 0.20
relative amount remaining in therapeutic device 100 [1]: about 3.1%
relative half-life in device 100 ([1]; % of ranibizumab): about 20%
diffusion coefficient and rate of release through the porous structure relative to Ranibizumab ([1]; faster than Ranibizumab): approx. 5 times

N[C@@H](Cc1c[nH]cn1)C(=O)O [Histidine]
Diff Coeff [3]: 6.8E−06 cm^2/s
Equiv volume [3, 6]: 0.3 nm^3
D/(Ran D) [3]: 6.75
Device Half-life relative to Ranibiz. [1]: 0.15
